Reference: patent US6900193B1, “Structural modification of 19-norprogesterone I: 17-α-substituted-11-β-substituted-4-aryl and 21-substituted 19-norpregnadienedione as new antiprogestational agents” (The United States of America as represented by the …, priority 1996, dated 2005)

What was measured:
[1] = molecular target: T1, progesterone receptor (estrogen-primed rabbit uterus) (Oryctolagus cuniculus, UniProt P06186); assay: Relative binding affinity, progesterone receptor; conditions: for BINDING AFFINITY Progester: Table 2; for binding affinities compared with the standard, compound 69B: progesterone receptor implied (rabbit or human isoform A not specified)
T1 construct: preparation of cytosols for the progesterone and glucocorticoid receptor assays; from tissue; host or cells: uterus of estradiol-primed immature female New Zealand White rabbits (cytosol)
T1 sequence (P06186 1-930): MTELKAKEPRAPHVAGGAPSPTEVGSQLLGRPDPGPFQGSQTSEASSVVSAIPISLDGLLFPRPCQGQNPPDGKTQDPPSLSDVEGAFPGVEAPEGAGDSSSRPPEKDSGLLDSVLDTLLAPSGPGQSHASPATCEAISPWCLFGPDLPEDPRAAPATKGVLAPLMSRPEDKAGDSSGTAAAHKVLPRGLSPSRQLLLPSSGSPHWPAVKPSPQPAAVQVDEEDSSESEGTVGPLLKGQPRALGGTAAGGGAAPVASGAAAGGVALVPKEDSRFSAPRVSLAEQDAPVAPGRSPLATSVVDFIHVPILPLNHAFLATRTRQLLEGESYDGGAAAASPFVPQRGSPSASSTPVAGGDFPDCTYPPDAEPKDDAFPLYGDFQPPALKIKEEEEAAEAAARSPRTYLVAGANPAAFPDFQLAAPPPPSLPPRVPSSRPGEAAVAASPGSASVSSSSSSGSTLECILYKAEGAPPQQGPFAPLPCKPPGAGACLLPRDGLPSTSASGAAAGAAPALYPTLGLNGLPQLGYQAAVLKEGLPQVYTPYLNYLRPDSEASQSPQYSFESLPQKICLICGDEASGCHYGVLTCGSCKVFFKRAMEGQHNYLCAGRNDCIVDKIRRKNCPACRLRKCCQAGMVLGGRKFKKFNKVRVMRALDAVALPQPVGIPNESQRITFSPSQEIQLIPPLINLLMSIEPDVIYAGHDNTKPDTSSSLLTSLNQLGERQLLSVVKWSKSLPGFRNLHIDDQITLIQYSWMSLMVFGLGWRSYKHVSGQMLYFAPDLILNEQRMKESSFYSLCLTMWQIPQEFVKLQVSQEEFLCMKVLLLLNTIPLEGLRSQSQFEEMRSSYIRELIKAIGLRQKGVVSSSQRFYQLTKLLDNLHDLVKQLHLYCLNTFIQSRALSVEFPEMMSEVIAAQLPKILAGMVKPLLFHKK
Procedure: (§1) Relative Binding Affinities for the Progesterone and Glucocorticoid Receptors
(§2) Uteri and thymus glands were obtained from estradiol-primed immature female rabbits of the New Zealand White strain for preparation of cytosols for the progesterone and glucocorticoid receptor assays, respectively. Tissues were excised and immediately placed in ice cold TEGDM buffer (10 mM Tris, pH 7.4; 1.5 mM EDTA; 10% glycerol vol/vol/; 1 mM dithiothreitol [DTT]; and 20 mM sodium molybdate). The tissues were dissected free of connective tissue and fat, weighed and minced finely. Minced tissues were homogenized in 3 volumes TEGDM/gm with four 10 second bursts of a VirTis Cyclone set at half maximum speed with a 30 second cooling period (in ice) between bursts. Homogenates were centrifuged at 109,663 g at 4° C. for 1 hour to yield the soluble cytosol fiction. Aliquots of cytosol were snap frozen and stored at −75° C.
(§3) All binding assays were carried out at 2-6° C. for 16-18 hours. The following radioactive ligands were used: [1,2-^3H(N)]-progesterone (50.0 Ci/mmole) for the progesterone receptor (PR). […] For the progesterone receptor RBA assays 0.02 ml uterine cytosol or TEDGM buffer, 0.05 ml of various concentrations of test compounds or progesterone, 0.13 ml TEGDM buffer and 0.05 ml [^3H]-progesterone were added to duplicate tubes. For the glucocorticoid receptor RBA assays 0.1 ml thymus cytosol or TEDGM buffer, 0.05 ml of various concentrations of test compounds or dexamethasone, 0.05 ml TEGDM buffer and 0.05 ml [3H]-dexamethasone were added to duplicate tubes. For the estrogen receptor RBA assays 0.05 ml uterine cytosol, 0.1 ml TEGDM buffer, 0.05 ml of various concentrations of test compounds or estradiol and 0.05 ml [^3H]-estradiol were added to duplicate tubes. The concentrations of the test compounds, progesterone, dexamethasone and estradiol ranged from 0.05 to 100 nM and the concentrations of the competitors ranged from 0.5 to 500 nM. Total binding was measured at radioligand concentrations of 3.5 nM and nonspecific binding was measured in the presence of a 200-fold excess of unlabeled progesterone (PR), dexamethasone (GR) or diethylstilbestrol (ER), respectively.
(§4) In all incubations bound and free ligand were separated using dextra-coated charcoal (DCC). A 0.1 ml aliquot of DCC (0.5% charcoal/0.05% Dextran T-70) was added to each tube. The tubes were vortexed and incubated on ice for 10 minutes. Five-tenths ml TEG buffer (without DTT or molybdate) was then added to all tubes to improve supernatant recovery following centrifugation. The charcoal was pelleted by centrifugation at 2,100 g for 15 minutes at 4° C. The supernatants containing the [^3H]-steroid receptor complexes were decanted into vials containing 4 ml Optifluor (Packard Instrument Co.), vortexed, equilibrated in a liquid scintillation counter for 30 minutes and then counted for 2 minutes. This provided the quantity of receptor bound [^3H]-steroid at each competitor concentration.

[2] = molecular target: T2, glucocorticoid receptor (estrogen-primed rabbit thymus) (Oryctolagus cuniculus, UniProt P59667); assay: Relative binding affinity, glucocorticoid receptor; conditions: estrogen-primed rabbit thymus, dexamethasone = 100%; for BINDING AFFINITY Glucocortic: Table 2
T2 construct: preparation of cytosols for the progesterone and glucocorticoid receptor assays; from tissue; host or cells: thymus of estradiol-primed immature female New Zealand White rabbits (cytosol)
T2 sequence (P59667 1-772): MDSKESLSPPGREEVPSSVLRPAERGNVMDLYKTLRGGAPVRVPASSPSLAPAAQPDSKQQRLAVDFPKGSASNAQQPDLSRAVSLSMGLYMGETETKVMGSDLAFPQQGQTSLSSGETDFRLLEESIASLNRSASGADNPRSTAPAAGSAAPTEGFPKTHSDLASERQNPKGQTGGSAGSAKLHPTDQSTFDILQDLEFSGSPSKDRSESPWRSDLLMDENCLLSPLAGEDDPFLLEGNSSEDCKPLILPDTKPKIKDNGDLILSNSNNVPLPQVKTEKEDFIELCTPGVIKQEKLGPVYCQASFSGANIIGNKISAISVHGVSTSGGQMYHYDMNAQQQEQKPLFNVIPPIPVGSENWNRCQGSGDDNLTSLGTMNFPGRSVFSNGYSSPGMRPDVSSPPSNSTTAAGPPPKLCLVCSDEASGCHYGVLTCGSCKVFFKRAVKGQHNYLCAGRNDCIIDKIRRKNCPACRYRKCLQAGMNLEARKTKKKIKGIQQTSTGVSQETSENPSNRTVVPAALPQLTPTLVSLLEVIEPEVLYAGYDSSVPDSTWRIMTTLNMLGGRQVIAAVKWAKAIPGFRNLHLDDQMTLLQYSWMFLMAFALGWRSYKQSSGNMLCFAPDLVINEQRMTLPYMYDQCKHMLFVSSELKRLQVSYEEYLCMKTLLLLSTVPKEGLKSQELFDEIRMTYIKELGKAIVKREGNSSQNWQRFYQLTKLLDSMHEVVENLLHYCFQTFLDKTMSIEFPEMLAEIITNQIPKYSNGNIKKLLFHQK
Procedure: as §1, §2, §3, §4

[3] = system: progesterone-induced endometrial proliferation; assay: AntiClauberg test; assay type: in vivo, rabbit; design: key to ANTIPROGESTATIONAL Anti-Clauberg: relative oral potency vs. reference compound set to 100; conditions: oral; for antiClauberg / oral antiprogestational activity, in words: versus the standard 69B; for BIOLOGICAL ACTIVITY antiClauberg: Table 2
Procedure: AntiClauberg Test (Clauberg, C., Zentr. Gynakol., 54:2757-2770 (1930)) Immature female rabbits of the New Zealand White breed (approx. 1 kg body weight) were maintained under standard laboratory conditions and received a subcutaneous injection of 5 μg estradiol in 10% ethanol/sesame oil daily for 6 consecutive days. Twenty-four hours after the last dose of estradiol (day 7) animals received progesterone by subcutaneous injection (0.8 mg/day) and the experimental compound in appropriate vehicle (usually 10% ethanol/sesame oil) orally or subcutaneously for five consecutive days. One group of rabbits received progesterone only. Twenty-four hours after the last dose all animals were sacrificed for removal of the uterus which was cleaned of all fat and connective tissue, weighed to the nearest 0.2 mg and placed in 10% neutral buffered formalin for subsequent histological processing. Five micron sections stained with hematoxylin and eosin (H&E) were evaluated microscopically for the degree of endometrial glandular proliferation according to the method of McPhail (McPhail, supra). The percent inhibition of endometrial proliferation at each dose level of the experimental compound was derived by comparison with the progesterone-stimulated animals alone.

[4] = estrogen-primed rabbit uterus, progesterone = 100%

Row | Compound | BINDING AFFINITY Progester [1, 4] | BINDING AFFINITY Glucocortic [2] | BIOLOGICAL ACTIVITY antiClauberg ([3]; CDB-2914 = 100 (assigned)) | binding affinities compared with the standard, compound 69B [1] | further results
1 | CCOCC(=O)[C@@]1(OC(C)=O)CCC2C3CCC4=CC(=O)CCC4=C3C(c3ccc(N(C)C)cc3)C[C@@]21C (stereo partly drawn) [Compound 46, 17α-acetoxy-21-ethoxy-11β-[4-(N,N-dimethylamino)phenyl]-9-norpregna-4,9-diene-3,20-dione] |  |  |  |  | RELATIVE BINDING AFFINITY Progesterone [1, 4]: 83%; RELATIVE BINDING AFFINITY Glucocorticoid [2]: 46%; ANTIPROGESTATIONAL Anti-Clauberg ([3]; relative potency, CDB-2914 = 100 (assigned)): 130-210; antiClauberg / oral antiprogestational activity, in words [3]: greater activity than the standard
2 | CN(C)c1ccc([C@H]2C[C@@]3(C)[C@@H](CC[C@]3(OC=O)C(=O)COC=O)[C@@H]3CCC4=CC(=O)CCC4=C32)cc1 [Compound 139, 17α,21-Diformyloxy-11β-[4-(N,N-dimethylamino)phenyl]-19-norpregna-4,9-diene-3,20-dione] | 30% | 79% | inactive |  | 
3 | CSc1ccc([C@H]2C[C@@]3(C)[C@@H](CC[C@]3(OC(C)=O)C(C)=O)[C@@H]3CCC4=CC(=O)CCC4=C32)cc1 [Compound 74] | 131% | 32% | <10 |  | 
4 | COCC1(C(C)=O)CCC2C3CCC4=CC(=O)CCC4=C3C(c3ccc(N(C)C)cc3)CC21C (stereo not drawn) [Compound 91, 17α-Methoxymethyl-11β-[4-(N,N-methylamino)phenyl]-19-norpregna-4,9-diene-3,20-dione] | 171% | 59% | inactive | binding affinities greater than that observed for the standard | 
5 | COC1(C(C)=O)CCC2C3CCC4=CC(=O)CCC4=C3C(c3ccc(N(C)C)cc3)CC21C (stereo not drawn) [Compound 97a, 17α-Methoxy-11β-[4-(N,N-dimethylamino)phenyl]-19-norpregna-4,9-diene-3,20-dione] | 120% | 52% | 110 | binding affinities greater than that observed for the standard | antiClauberg / oral antiprogestational activity, in words [3]: greater activity than the standard
6 | 17α-Acetoxy-11β-[4-(N,N-diethylamino)phenyl]-21-thiocyanato-19-norpregna-4,9-diene-3,20-dione [Compound 138] | 63% | 14% | 57 |  | 
7 | COCC(=O)C1(OC)CCC2C3CCC4=CC(=O)CCC4=C3C(c3ccc(C(C)=O)cc3)CC21C (stereo not drawn) [Compound 113d, 17α,21-Dimethoxy-11β-(4-acetylphenyl)-19-norpregna-4,9-diene-3,20-dione] |  |  |  | binding affinities greater than that observed for the standard | 
8 | COCC(=O)C1(O)CCC2C3CCC4=CC(=O)CCC4=C3C(c3ccc(C(C)=O)cc3)CC21C (stereo not drawn) [Compound 122b, 17α-Hydroxy-11β-(4-acetylphenyl)-21-methoxy-19-norpregna-4,9-diene-3,20-dione] |  |  |  | binding affinities greater than that observed for the standard | 
9 | CC(=O)OC1(C(C)=O)CCC2C3CCC4=CC(=O)CCC4=C3C(c3ccc(C(C)=O)cc3)CC21C (stereo not drawn) [Compound 73, 17α-Acetoxy-11β-(4-acetylphenyl)-19-norpregna-4,9-diene-3,20-dione] |  |  |  | binding affinities greater than that observed for the standard | 
10 | CC(=O)O[C@]1(C(C)=O)CC[C@H]2[C@@H]3CCC4=CC(=O)CCC4=C3[C@@H](c3ccc(N4CCCC4)cc3)C[C@@]21C [Compound 70, 17α-Acetoxy-11β-[4-(N-pyrrolidino)phenyl]-19-norpregna-4,9-diene-3,20-dione] | 79% |  | ˜25 |  | 
11 | COCC(=O)C1(OC)CCC2C3CCC4=CC(=O)CCC4=C3C(c3ccc(N4CCCC4)cc3)CC21C (centres unmarked) [Compound 113b] | 59% | 34% |  |  | 
